In US8148086B2, “Methods to predict and prevent resistance to taxoid compounds” (Children's Medical Center Corporatioin, priority 2005, dated 2012):

Legend:
A549 and A549-TR cells = assay: MTT cytotoxicity assay, paclitaxel on cell proliferation/survival; assay type: cell-based, human; details: MTT 72 h after paclitaxel addition
Description: (§1) FIGS. 1A and 1B show graphs illustrating the effect of paclitaxel on cell proliferation. A549 and A549 TR cell lines (FIG. 1A) and MES-SA and MES-SA-DX5 cell lines (FIG. 1B) were treated with various concentrations of paclitaxel. 24 hours after 1×10^4 cells/well were seeded in 96 well plates. MTT assay for cell survival was performed 72 h after paclitaxel addition. X axis: concentration of paclitaxel, Y axis-% survival.
(§2) Cell Culture. The human non-small cell lung carcinoma cell line A549 and its Paclitaxel-resistant derivative cell lines were cultured in F-12 Ham nutrient mixture (Invitrogren, Carlsbad, Calif.) supplemented with 10% fetal bovine serum (FBS) at 37° C. in a humidified atmosphere with 5% CO2/95% air. The paclitaxel-resistant cell lines were grown under selective pressure (100 nM paclitaxel), then placed in Paclitaxel-free culture medium 5-7 days before experiments were performed. The uterine sarcoma cells (MES-SA) and the multidrug resistant derivative (MES-SA/DX5) were maintained in McCoy's 5A media (ATCC, Rockville, Md.) supplemented with 10% FBS. […]
(§3) Cytotoxicity Assays. Cell growth inhibition was determined by 3-(4,5-dimethylthiazol-2-yl)-2,5-diphenyltetrazolium (MTT) bromide assay using MTT (Sigma Chemicals, St. Louis, Mo.) reagent in 96-well plates. […] Absorbance was determined using a 96-well SpectraMax plate reader (Molecular Devices, Sunnyvale, Calif.) at 570 nm.

[1] = test system: MES-SA and MES-SA/DX5 cells; assay: as above; assay type: cell-based, human; details: MTT 72 h after paclitaxel addition
Description: as §1, §2, §3

Structure (SMILES): CC(=O)O[C@H]1C(=O)[C@@]2(C)[C@H]([C@H](OC(=O)c3ccccc3)[C@]3(O)C[C@H](OC(=O)[C@H](O)[C@@H](NC(=O)c4ccccc4)c4ccccc4)C(C)=C1C3(C)C)[C@]1(OC(C)=O)CO[C@@H]1C[C@@H]2O [paclitaxel, Paclitaxel]
- difference in sensitivity to paclitaxel, resistant subline vs parental line (A549 and A549-TR cells): greater than 100 fold
- difference in sensitivity to paclitaxel, resistant subline vs parental line [1]: greater than 100 fold
